Assay results from ChEMBL document CHEMBL1201862, “PubChem BioAssay data set” (2004).
Calls of active or inactive are those of the source.

How the values were obtained:
Mu-type opioid receptor = Mu-type opioid receptor (Homo sapiens, UniProt P35372); format: functional, cell-based;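 further: U2OS cells with beta-arrestin recruitment to OPRM1 by beta-gal complementation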
Coagulation factor XII = biological target: T1, Coagulation factor XII (Homo sapiens, UniProt P00748); format: functional;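 further: activated factor XIIa alpha cleaving a fluorogenic AMC peptide substrate; inhibitor potency from loss of enzyme activity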
T1 sequence (P00748 whole entry): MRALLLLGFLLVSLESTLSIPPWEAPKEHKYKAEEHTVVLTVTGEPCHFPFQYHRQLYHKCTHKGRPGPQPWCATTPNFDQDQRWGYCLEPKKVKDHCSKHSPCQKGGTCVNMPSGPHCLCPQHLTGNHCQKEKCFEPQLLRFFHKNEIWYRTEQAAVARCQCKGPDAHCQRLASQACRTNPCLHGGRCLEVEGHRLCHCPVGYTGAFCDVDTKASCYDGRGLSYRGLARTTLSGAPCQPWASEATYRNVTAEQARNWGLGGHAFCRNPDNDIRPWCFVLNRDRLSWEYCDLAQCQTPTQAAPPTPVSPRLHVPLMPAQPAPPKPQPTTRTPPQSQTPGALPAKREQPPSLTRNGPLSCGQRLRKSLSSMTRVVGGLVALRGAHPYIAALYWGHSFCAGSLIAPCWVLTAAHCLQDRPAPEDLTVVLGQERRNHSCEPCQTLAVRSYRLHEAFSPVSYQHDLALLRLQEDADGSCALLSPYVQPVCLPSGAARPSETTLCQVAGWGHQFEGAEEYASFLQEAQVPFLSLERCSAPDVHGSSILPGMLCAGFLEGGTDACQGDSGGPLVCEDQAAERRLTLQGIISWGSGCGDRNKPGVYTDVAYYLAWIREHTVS

[1] = biological target: 5-hydroxytryptamine receptor 2A (Mus musculus, UniProt P35363); format: functional, cell-based;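 further: CHO-K1 cells with tagged receptor and beta-arrestin; agonist potency measured as compound-induced activation of the receptor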
cells [2] = test: cells
[3] = HEK293 cell viability, dose response, counter-screen for EBV LMP1 inhibitor project, dry powder, set 2 (AID 624374); format: functional
[4] = T. cruzi intracellular amastigote growth inhibition, dose response, imaging, CA-I/72 strain, bovine embryo skeletal muscle, dry powder (AID 651885); format: functional, cell-based
[5] = AlphaScreen signal interference compounds, dose response, artefact control for ARNT-TACC3 interaction inhibitor project, biochemical, luminescence, cherry-pick (AID 651705); format: functional;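 further: AlphaScreen bead proximity signal that flags compounds interfering with the detection technology; potency reflects signal decrease which marks the compound as an assay artifact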
[6] = inhibitors of firefly luciferase expression or activity, dose response, H4 neuroglioma cells, luminescence (AID 1990); format: functional, cell-based
[7] = inhibitors of SNCA 5'UTR-driven reporter translation, confirmation, H4 neuroglioma cells, luminescence (AID 1988); format: functional, cell-based
[8] = Luminescence Cell-Based Dose Response HTS to Identify Inhibitors of 5'UTR Stem-Loop Driven Prion Protein mRNA Translation in H4 Neuroglioblastoma Cells. [Related pubchem assays: 1827 (Project Summary), 1813 (Primary HTS)]; format: functional
[9] = cytotoxicity in OVCAR8 ovarian cancer cells, dose response, PAX8 project, cell-based, plate reader, dry powder samples (AID 743197); format: functional; conditions: OVCAR-8
[10] = NIH:OVCAR-3 ovarian cancer cell cytotoxicity, dose response, PAX8 inhibitor project, plate reader, dry powder samples (AID 743044); format: functional, cell-based
[11] = A2780 ovarian cancer cell cytotoxicity, dose response, cytotoxicity control, plate reader, dry powder samples (AID 743046); format: functional, cell-based
Paired box protein Pax-8 = Paired box protein Pax-8 (Homo sapiens, UniProt Q06710); test: inhibitors of PAX8-driven TPO luciferase reporter, dose response, RMG-I cells, cherry-pick (AID 687027); format: functional, cell-based;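 further: luciferase reporter driven by Pax8 target thyroperoxidase promoter measured by SteadyGlo luminescence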
[12] = IGROV1 ovarian cancer cell cytotoxicity, dose response, PAX8 inhibitor project, plate reader, dry powder samples (AID 743043); format: functional, cell-based; conditions: IGROV-1
Cryptococcus neoformans = test: PubChem AID 686997; format: functional, organism-based
[13] = biological target: T2, Oxysterols receptor LXR-beta (Homo sapiens, UniProt P55055); format: functional, cell-based;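 further: agonist activity at LXR measured by a cell-based luminescence readout across a dose range, run as a counterscreen for daf-12 agonists; HEK293 cells with Gal4-LXR fusion and GAL4-driven luciferase reporter; potency for activation of Gal4-LXR reporter so compounds are agonists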
T2 sequence (P55055 whole entry): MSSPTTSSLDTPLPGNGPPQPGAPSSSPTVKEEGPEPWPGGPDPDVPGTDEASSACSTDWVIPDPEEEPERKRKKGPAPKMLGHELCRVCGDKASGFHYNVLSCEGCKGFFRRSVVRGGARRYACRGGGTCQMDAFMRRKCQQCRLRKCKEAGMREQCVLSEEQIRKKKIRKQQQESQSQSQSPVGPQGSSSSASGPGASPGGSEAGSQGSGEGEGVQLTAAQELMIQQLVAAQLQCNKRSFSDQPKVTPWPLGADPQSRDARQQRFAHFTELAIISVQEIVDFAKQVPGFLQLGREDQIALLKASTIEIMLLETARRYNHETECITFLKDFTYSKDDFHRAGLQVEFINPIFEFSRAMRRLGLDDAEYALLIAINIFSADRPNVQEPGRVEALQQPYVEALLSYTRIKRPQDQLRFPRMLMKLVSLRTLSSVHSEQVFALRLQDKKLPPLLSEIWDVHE

[14] = miR-122 activators in hepatoma reporter cells, dose response, cell-based, Huh7 psiCHECK-miR122, Renilla luciferase, cherry-picked (AID 651956); format: functional;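 further: huh7 hepatoma cells stably carrying a psiCHECK-2 miR-122 sensor plasmid; renilla luciferase signal reporting endogenous miR-122 activity after 48 h compound exposure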
[15] = HEK293T cytotoxicity, dose response, cytotoxicity control for miR-122 modulator project, cell-based, activator set, cherry-pick (AID 720690); format: functional;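 further: HEK293T human cells scored for general mammalian cytotoxicity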
Vero = test: Vero cell toxicity, dose response, cytotoxicity control, plate reader, cherry-pick samples (AID 687020); format: functional, cell-based; conditions: Chlorocebus sabaeus
cells [16] = format: functional, cell-based; conditions: HEK-CNG
Galanin receptor type 3 = Galanin receptor type 3 (Homo sapiens, UniProt O60755); test: Fluorescence-based cell-based primary high throughput dose response assay to identify antagonists of the Galanin Receptor 3 (GalR3).; format: functional
Chain of Galanin receptor type 3 (O60755 whole entry): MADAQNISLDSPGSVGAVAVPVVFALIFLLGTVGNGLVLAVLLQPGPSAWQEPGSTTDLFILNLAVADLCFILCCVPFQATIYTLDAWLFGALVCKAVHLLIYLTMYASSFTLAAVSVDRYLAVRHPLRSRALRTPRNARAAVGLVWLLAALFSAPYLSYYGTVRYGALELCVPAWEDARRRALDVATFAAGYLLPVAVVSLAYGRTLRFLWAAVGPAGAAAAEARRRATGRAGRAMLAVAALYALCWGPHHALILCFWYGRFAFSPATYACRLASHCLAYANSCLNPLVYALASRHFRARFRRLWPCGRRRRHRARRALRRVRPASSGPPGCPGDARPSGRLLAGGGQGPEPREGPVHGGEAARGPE

Chain of Paired box protein Pax-8 (Q06710 whole entry): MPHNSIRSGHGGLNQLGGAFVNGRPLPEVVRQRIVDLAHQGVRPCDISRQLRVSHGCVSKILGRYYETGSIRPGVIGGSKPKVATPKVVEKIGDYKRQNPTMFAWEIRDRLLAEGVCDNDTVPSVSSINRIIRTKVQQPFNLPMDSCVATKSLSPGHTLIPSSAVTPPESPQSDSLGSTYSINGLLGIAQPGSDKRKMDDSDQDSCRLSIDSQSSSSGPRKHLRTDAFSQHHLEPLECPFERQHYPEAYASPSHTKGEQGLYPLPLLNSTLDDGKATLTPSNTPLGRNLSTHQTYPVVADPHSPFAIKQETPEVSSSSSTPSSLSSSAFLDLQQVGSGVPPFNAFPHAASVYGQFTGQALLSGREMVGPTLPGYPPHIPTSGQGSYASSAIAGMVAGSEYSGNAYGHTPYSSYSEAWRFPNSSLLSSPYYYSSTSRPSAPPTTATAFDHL
Chain of Mu-type opioid receptor (P35372 whole entry): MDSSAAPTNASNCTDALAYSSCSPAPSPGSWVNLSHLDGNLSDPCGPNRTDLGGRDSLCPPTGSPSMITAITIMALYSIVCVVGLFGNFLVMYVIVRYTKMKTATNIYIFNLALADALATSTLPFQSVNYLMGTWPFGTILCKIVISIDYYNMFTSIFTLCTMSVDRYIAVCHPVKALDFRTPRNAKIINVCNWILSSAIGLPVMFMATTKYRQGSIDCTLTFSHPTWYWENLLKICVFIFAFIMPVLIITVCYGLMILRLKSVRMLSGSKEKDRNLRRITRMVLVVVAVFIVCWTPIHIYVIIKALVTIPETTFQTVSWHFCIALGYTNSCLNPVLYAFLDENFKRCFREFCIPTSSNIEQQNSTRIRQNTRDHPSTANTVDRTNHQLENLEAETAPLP
Chain of 5-hydroxytryptamine receptor 2A (P35363 whole entry): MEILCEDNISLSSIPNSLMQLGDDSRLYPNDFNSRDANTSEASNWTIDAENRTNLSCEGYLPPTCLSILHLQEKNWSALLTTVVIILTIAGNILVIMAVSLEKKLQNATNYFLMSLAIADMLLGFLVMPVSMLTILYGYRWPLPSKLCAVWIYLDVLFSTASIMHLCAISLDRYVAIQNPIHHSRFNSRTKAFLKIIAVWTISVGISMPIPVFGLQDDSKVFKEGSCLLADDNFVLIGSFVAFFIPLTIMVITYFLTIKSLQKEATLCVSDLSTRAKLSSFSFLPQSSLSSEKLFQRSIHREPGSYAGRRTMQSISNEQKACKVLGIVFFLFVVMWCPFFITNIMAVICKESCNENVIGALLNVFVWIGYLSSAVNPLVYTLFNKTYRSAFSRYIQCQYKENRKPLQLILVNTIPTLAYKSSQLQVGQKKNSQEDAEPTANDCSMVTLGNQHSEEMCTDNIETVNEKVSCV

Compound: Cc1[nH]c2ccccc2c1NC(=O)CN1CCN(C(=O)c2ccco2)CC1
- EC50 (Mu-type opioid receptor): 92.4 µM (inactive)
- IC50 (Coagulation factor XII): > 50 µM (inactive)
- EC50 [1]: 4.1 µM (active)

Compound: COCCN1C=C(C(=O)OC)C(c2ccc(Cl)cc2)C(C(=O)OC)=C1
- AC50 (cells [2]): 10.9 µM (active)

Compound: O=C(Cc1ccccn1)NCC[C@@H]1CC[C@@H](NC(=O)Nc2ccc(Cl)cc2)[C@@H](CO)O1
- AbsAC35 [3]: 83.87 µM

Compound: C[C@H]1CN([C@@H](C)CO)C(=O)c2cccc(NC(=O)c3ccncc3)c2O[C@@H]1CN(C)Cc1ccc(C(=O)O)cc1
- IC50 [4]: > 20 µM (inactive)

Compound: C(=N\Nc1ccc2nncn2n1)/c1ccccn1
- AC50 [5]: 110 µM (active)
- EC50 [6]: > 120 µM (not active)
- EC50 [7]: > 120 µM (not active)
- EC50 [8]: 11.8 µM (active)

Compound: COc1ccc(S(=O)(=O)N(C)C[C@H]2Oc3cc(C#CC4CCCC4)ccc3S(=O)(=O)N([C@@H](C)CO)C[C@@H]2C)cc1
- AC50 [9]: 31.3 µM (active)
- AC50 [10]: 21.4 µM (active)
- AC50 [11]: 8.96 µM (active)
- AC50 (Paired box protein Pax-8): 6.49 µM (active)
- AC50 [12]: 57.4 µM (active)

Compound: COC(=O)C1=C(C)N(Cc2ccc(Br)cc2)C(=S)NC1c1cccc(Cl)c1 (configuration not stated)
- AC50 (Cryptococcus neoformans): 26.4 µM (active)

Compound: Cc1ccc(/C=N/NC(=O)c2ccccn2)s1
- EC50 [13]: > 67.6 µM (inactive)

Compound: CC(=O)/N=c1\scc(-c2ccccc2)n1-c1cccc(O)c1
- AC50 [14]: 25.1 µM (active)
- AC50 [15]: 44.8 µM (active)

Compound: COc1ccccc1-c1noc2c1C(=O)N(Cc1cn(Cc3ccccc3)nn1)CC2
- AC50 (Vero): 32.2 µM (active)

Compound: Cc1cc(OCC(=O)Nc2ccncc2)c(C)cc1Br
- EC50 (cells [16]): > 29.9 µM (inactive)
- IC50 (Galanin receptor type 3): 1.4 µM (active)
